Values joined by “and” are separate entries in the source; they are usually repeats but may differ in a detail not shown here. Equal entries are not always repeated.
Columns and labels:
Format in all cases: cell-based
[1] = molecular target: T1, SLICK (Homo sapiens, UniProt Q6UVM3); test: Tl+-flux assay in HEK-293 cells, SLICK; conditions: 10 µM test compound
T1 construct: expressed in transfected cells; host or cells: HEK293
Text: (§1) Having executed our plan to prepare analogs across the identified regions of the chemotype (Figure 2), we identified two analogs for further profiling and evaluation. […] Desiring to add a second compound with some measure of structural differences, we also chose another submicromolar SLACK inhibitor 66 (VU0936154). Whereas 40 contains an ether linker and a halogenated phenyl group in the eastern region, […] contains an N-methyl linker and a phenyl group with a more polar cyano substituent. We first screened these analogs at 10 µM versus our in-house panel of ion channel targets using Tl^+-flux assays in HEK-293 cells expressing the human target of interest. […] Included in this set are Slo family members SLICK and two isoforms of Maxi-K, as well as several different K^+, Na^+, and Ca^2+ channels (Table 6). […] Of note was the excellent selectivity versus the broader panel of targets for both compounds, including versus the hERG channel.
(§2) Stably transfected monoclonal HEK293 cell lines expressing SLICK, Maxi-K α1/β3, Maxi-K α1/β4, CaV3.2, GIRK 1/2, KV2.1, KV7.2, NaV1.7, and TASK-1 were generated as previously described. […]
(§3) The Tl^+ flux assays were conducted as previously described, with modifications optimized for individual cell lines as described below. […] Cell plates were then loaded onto a Panoptic kinetic imaging plate reader (WaveFront Biosciences, Franklin, TN, USA). […]

[2] = molecular target: T2, CaV3.2 (Homo sapiens, UniProt O95180); test: Tl+-flux assay in HEK-293 cells, CaV3.2; conditions: HEK293; 10 µM test compound; relative to control bepridil; read-out: Percent Inhibition ± SEM, CaV3.2
T2 construct: expressed in transfected cells; host or cells: HEK293
T2 sequence (O95180 whole entry): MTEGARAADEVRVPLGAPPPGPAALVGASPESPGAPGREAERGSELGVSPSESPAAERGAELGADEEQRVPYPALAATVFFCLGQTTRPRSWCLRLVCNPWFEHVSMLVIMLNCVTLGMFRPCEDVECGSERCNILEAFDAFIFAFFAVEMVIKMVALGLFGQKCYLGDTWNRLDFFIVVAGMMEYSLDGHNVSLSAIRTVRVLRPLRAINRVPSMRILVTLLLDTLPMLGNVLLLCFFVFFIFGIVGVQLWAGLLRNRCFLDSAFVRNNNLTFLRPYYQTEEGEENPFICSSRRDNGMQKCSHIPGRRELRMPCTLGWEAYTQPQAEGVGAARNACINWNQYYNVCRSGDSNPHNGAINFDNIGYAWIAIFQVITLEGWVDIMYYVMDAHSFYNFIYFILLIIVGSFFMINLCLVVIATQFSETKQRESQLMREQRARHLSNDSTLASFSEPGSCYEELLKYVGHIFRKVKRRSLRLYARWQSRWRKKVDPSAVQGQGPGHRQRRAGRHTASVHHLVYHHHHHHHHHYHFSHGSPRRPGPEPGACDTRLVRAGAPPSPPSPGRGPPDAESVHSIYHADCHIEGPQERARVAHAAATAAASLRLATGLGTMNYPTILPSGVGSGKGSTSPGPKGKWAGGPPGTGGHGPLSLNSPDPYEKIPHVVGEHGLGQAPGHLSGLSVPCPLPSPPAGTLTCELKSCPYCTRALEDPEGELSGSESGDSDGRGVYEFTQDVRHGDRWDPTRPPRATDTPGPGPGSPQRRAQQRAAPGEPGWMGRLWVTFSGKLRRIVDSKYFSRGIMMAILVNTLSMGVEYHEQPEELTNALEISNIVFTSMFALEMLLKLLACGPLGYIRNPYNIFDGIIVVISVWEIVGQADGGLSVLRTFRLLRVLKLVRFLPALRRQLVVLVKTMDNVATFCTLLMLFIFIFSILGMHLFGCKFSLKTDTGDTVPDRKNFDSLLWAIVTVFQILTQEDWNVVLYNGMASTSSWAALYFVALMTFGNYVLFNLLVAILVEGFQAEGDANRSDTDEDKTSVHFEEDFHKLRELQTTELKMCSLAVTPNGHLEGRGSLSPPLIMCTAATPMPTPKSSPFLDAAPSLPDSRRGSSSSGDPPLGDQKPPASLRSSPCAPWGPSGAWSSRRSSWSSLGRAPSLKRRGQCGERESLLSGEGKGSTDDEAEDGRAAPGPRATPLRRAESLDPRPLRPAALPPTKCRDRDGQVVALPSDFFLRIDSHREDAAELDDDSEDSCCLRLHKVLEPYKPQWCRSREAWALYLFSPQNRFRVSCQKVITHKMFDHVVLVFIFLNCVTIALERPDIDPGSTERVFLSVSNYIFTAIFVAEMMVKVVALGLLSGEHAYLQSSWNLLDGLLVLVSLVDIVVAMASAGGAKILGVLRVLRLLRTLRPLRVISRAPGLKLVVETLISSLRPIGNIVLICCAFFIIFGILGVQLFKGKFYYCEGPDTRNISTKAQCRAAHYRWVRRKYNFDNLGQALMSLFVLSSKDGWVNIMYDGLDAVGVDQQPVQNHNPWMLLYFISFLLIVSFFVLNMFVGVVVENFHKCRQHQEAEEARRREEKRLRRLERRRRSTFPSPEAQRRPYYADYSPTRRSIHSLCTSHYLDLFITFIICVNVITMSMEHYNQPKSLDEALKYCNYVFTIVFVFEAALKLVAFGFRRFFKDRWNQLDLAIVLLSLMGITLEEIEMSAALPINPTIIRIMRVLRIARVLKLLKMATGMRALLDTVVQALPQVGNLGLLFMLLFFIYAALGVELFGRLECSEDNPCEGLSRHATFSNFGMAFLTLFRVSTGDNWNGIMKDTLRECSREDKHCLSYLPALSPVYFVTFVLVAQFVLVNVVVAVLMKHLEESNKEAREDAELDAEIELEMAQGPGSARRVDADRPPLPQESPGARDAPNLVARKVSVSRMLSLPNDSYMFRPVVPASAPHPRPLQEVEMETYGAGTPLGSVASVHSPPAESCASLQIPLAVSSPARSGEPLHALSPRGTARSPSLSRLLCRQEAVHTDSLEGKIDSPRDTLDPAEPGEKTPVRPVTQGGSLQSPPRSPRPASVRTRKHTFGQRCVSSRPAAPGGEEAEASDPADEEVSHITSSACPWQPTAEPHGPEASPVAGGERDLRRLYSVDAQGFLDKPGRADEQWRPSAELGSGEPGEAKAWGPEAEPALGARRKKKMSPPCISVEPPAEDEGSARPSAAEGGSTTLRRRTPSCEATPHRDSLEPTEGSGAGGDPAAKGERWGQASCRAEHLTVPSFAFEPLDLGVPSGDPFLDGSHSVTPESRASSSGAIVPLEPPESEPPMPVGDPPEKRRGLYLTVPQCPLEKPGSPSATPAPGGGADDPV
Text: as §1, §2, §3

[3] = molecular target: T3, hERG (Homo sapiens, UniProt Q12809); test: Tl+-flux assay in HEK-293 cells, hERG; conditions: HEK293 cells stably expressing hERG, pH 7.3, 10 µM test compound, relative to control bepridil, read-out: Percent Inhibition ± SEM, hERG
T3 construct: expressed in transfected cells; host or cells: HEK293
T3 sequence (Q12809 whole entry): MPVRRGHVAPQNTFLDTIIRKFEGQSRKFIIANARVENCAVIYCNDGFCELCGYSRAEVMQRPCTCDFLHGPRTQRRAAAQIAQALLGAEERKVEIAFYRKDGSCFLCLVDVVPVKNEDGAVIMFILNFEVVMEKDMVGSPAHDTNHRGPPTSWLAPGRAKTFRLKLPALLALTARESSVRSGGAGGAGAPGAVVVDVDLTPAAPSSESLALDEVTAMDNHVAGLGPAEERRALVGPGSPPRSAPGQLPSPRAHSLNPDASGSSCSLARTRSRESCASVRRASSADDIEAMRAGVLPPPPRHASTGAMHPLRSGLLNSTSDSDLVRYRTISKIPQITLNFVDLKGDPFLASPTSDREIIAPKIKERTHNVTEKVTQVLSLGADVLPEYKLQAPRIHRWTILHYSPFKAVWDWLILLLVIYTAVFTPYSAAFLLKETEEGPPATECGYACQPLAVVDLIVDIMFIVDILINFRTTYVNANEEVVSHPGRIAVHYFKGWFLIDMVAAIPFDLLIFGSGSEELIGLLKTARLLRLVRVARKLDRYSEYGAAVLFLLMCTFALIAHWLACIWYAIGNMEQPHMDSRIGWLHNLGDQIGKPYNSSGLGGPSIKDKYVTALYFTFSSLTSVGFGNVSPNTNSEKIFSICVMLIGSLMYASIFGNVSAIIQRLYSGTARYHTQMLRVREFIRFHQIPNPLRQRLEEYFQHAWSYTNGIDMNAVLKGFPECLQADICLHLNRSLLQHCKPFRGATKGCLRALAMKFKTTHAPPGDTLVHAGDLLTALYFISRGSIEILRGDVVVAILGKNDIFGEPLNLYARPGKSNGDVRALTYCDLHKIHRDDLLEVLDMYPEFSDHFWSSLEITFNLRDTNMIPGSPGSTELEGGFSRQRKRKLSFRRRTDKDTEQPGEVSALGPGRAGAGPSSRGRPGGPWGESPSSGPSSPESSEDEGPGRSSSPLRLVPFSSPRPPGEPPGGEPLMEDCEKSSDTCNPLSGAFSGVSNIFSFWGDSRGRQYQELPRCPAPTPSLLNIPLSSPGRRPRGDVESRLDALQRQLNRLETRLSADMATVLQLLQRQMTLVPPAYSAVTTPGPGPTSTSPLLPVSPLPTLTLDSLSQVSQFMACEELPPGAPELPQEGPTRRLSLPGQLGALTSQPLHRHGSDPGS
Text: as §1, §2, §3

[4] = molecular target: T4, NaV1.7 (Homo sapiens, UniProt Q15858); test: Tl+-flux assay in HEK-293 cells, NaV1.7; conditions: HEK293; 10 µM test compound; relative to control TC-N 1752; read-out: Percent Inhibition ± SEM, NaV1.7
T4 construct: expressed in transfected cells; host or cells: HEK293
Text: as §1, §2, §3

T1 sequence (Q6UVM3 whole entry): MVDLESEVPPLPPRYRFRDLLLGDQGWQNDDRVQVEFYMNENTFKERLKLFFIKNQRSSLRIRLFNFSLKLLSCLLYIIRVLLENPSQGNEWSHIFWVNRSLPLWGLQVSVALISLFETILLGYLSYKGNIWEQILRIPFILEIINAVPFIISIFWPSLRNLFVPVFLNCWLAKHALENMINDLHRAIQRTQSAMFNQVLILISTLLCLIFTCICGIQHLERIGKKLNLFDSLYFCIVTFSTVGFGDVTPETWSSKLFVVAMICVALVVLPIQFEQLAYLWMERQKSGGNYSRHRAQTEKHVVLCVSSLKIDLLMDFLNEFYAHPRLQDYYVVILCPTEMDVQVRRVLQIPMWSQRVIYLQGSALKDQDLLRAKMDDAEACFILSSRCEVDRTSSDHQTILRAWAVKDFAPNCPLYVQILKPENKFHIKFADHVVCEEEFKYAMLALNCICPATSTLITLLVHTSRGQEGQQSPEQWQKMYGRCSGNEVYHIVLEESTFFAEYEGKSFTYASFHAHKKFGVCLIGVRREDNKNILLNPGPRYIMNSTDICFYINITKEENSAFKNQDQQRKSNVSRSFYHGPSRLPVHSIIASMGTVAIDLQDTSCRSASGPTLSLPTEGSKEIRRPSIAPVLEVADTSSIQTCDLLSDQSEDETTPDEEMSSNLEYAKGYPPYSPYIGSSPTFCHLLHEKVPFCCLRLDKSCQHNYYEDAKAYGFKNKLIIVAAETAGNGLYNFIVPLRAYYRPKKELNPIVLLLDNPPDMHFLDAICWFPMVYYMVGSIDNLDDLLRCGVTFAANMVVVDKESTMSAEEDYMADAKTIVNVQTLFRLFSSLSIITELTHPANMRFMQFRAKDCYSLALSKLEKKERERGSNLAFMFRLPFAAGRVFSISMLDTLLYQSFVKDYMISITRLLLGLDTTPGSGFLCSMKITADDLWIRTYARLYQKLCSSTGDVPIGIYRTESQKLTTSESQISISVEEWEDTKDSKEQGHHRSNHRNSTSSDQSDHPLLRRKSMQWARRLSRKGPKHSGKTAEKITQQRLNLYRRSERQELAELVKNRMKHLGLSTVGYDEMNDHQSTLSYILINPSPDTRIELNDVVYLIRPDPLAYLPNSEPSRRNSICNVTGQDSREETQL

| Structure (SMILES) | Percent activation ± SEM, SLICK ([1]; activator, relative to control acetazolamide) | inhibition at 10 µM [2] | inhibition at 120 s, 10 µM [3] | inhibition at 10 µM [4] | inhibition at 10 µM ([1]; HEK293, relative to control SKF96365, read-out: Percent Inhibition ± SEM, SLICK) |
| --- | --- | --- | --- | --- | --- |
| CC(C)(Oc1ccc(Cl)cc1)C(=O)Nc1cnc(Oc2c(F)cccc2F)nc1 [Analog 40] | 36% and 36 ± 8.8 (activator) ^3% | 10 ± 0.82% | 0.9 ± 2.9% | 7.5 ± 1.7% | – |
| CN(c1ccc(C#N)cc1)c1ncc(NC(=O)C(C)(C)Oc2ccc(Cl)cc2)cn1 [Analog 66] | – | 32 ± 2.4% | 13 ± 3.3% | 17 ± 1.8% | 16 ± 1.4% |

— PMC11643494, “Structure–Activity Relationship Studies in a Series of 2-Aryloxy-N-(pyrimidin-5-yl)acetamide Inhibitors of SLACK Potassium Channels” (Molecules, 2024)
